Laboratory results taken from patent publication US7321046B2, “Analogs of dictyostatin, intermediates therefor and methods of synthesis thereof” (University of Pittsburgh, priority 2002, dated 2008).
Read-outs that look alike come from different tables or passages of the source.

Columns and labels:
[1] = ester bond, toluene, 2 steps
[2] = system: HeLa cells; experiment: Multiparameter fluorescence high information content analysis of cellular effects; format: cell-based; details: 24 h treatment
Experimental: HeLa cells were plated on collagen-coated 384-well microtiter plates, allowed to attach, then treated for 24 h with test agents. Test agent concentrations began at 1 μM, and two-fold dilutions were made to levels below 1 nM. After the treatment period, the cells were fixed with formalin and their chromatin stained with Hoechst 33342. Cells were permeabilized and treated with primary antibodies for α-tubulin and phosphohistone H3, and then with fluorophore-labeled secondary antibodies. The three fluorescent channels were then examined on an ArrayScan II, which gives quantitative pixel distribution and density information in each channel on a per cell basis.
HeLa cells growing at log phase were trypsinized and plated in 40 μL at a density of 7,000-8,000 cells per well in calf skin collagen I-coated 384-well plates (Falcon #3962; Fisher Scientific). Cells were exposed to test agents or 0.5% DMSO within 2-8 h of plating. Concentrated DMSO stock solutions of all test agents were diluted into solutions of HBSS medium plus 10% FBS and added to the microplate wells (10 μL per well), using an automated liquid handling system (Biomek® 2000; Beckman-Coulter, Inc.) to provide a serial 2-fold dilution of each test agent. The cells were incubated in the presence of test agents for 24 h. At the end of the incubation, the medium was removed and replaced with HBSS containing 4% formaldehyde and 10 μg/mL Hoechst 33342 (25 μL/well) to fix the cells and fluorescently label their chromatin. After incubation at room temperature for 20-30 min, the solution was removed from each well and replaced with HBSS (100 μL/well). Further reagent additions were made to the microplates using the Biomek 2000. After removing the HBSS from each well, cells were permeabilized for 5 min at room temperature with 0.5% (w/w) Triton X-100 in HBSS (10 μL/well). This step extracts a fraction of the soluble cellular components, including soluble tubulin. The wells were washed with HBSS (100 μL/well), followed by addition of a primary antibody solution containing mouse anti-α-tubulin (1:3000) and rabbit anti-phosphohistone H3 (1:500) in HBSS (10 μL/well). After 1 h at room temperature, the wells were washed with HBSS as above, followed by the addition of a secondary antibody solution containing fluorescein-5-isothiocyanate (FITC)-labeled donkey anti-mouse (1:300) and Cy3-labeled donkey anti-rabbit (1:300) antibodies diluted in HBSS (10 μL/well). After 1 h at room temperature, the wells were washed as above, and HBSS was added (100 μL/well). The plates were placed in an ArrayScan® HCS Reader with the Target Activation BioApplication Software coupled to Cellomics® Store and the vHCS™ Discovery Toolbox (Cellomics, Inc.) to analyze images. Briefly, the instrument was used to scan multiple optical fields, each with multiparameter fluorescence, within a subset of the wells of the 384-well microplate. The BioApplication software produced multiple numerical feature values, such as subcellular object intensities, shapes, and location for each cell within an optical field. […] A nuclear mask was generated from Hoechst 33342-stained nuclei, and object identification thresholds and shape parameters were set such that the algorithm identified over 90% of the nuclei in each field. Objects that touched each other or the edge of the image were excluded from the analysis. Tubulin mass was defined as the average green (FITC) pixel intensity in an area defined by the Hoechst-defined nuclear mask. This cytoplasmic area around the nucleus contains cytoskeletal components is a region from which sensitive measurements of cytoplasmic characteristics can be made.

[3] = system: 1A9/Ptx22 (Ala364 −> Thr) β-tubulin mutant cells; experiment: Antiproliferative assay (GI50, MTS), paclitaxel-resistant clone; format: cell-based, human; details: for fold-resistance: 1A9/Ptx22 versus parental 1A9
Experimental: (§1) Representative analogs were examined for their antiproliferative activities against human ovarian carcinoma 1A9 cells and their paclitaxel-resistant mutants, 1A9/Ptx10 and 1A9/Ptx22.
(§2) The effects of dictyostatin and its analogs on growth inhibition of parental (A549) and paclitaxel-resistant (1A9/Ptx10 and Ptx22) ovarian adenocarcinoma cell lines were evaluated following the antiproliferative assay protocol as described earlier (Minguez et al., 2003; Choy et al., 2003; Lazo et al., 2001). Cells were maintained in RPMI medium with 10% FBS in it, plated in tissue culture plates, and allowed to grow for 48-72 h before transferring them into 96-well plates. Cells were allowed to attach and grow for 48 h in 96-well plates after which they were treated with either control (DMSO) or drug in triplicate/quadruplicate. Cells were incubated with the compounds for 72 h. Cells were treated with MTS reagent before reading the plate in a Dynamax plate reader for determining the cell number. The fifty percent growth inhibition values (GI50 values) were calculated for the compounds against all the three cell lines.

[4] = system: 1A9/Ptx10 (Phe270 −> Val) β-tubulin mutant cells; experiment: as above; format: cell-based, human; details: for fold-resistance: 1A9/Ptx10 versus parental 1A9
Experimental: as §1, §2

[5] = system: microtubules (tubulin polymer); experiment: Radiolabeled ligand binding assays; details: test agent 4 μM; radiolabel 4.0 μM; 37° C.
Experimental: The abilities of test agents to inhibit the binding of radiolabeled forms of the microtubule stabilizers paclitaxel, discodermolide and epothilone B from tubulin polymer were determined.
[^3H]Paclitaxel, [^3H]discodermolide and [^14C]epothilone B solutions were prepared as 125 μM stock solutions in 50% DMSO. Radiolabeled compound (final concentration, 4.0 μM) and test agents at final concentrations noted in the text and tables were mixed in 50 μL of 4:1 (v/v) 0.75 M aqueous MSG/DMSO and warmed to 37° C. Meanwhile, a reaction mixture containing 0.75 M MSG, 2.5 μM tubulin, and 25 μM ddGTP was prepared and incubated at 37° C. for 30 min to form microtubuless. A 200 μL aliquot of the microtubule mixture was added to the drug mixtures, and incubation continued for 30 min at 37° C. Reaction mixtures were centrifuged in an Eppendorf 5417C centrifuge at 14,000 rpm for 20 min at room temperature. Radiolabel in the supernatants (100 μL) was determined by scintillation spectrometry.

[6] = system: T1, Bovine brain tubulin; experiment: Pelleting assay (tubulin assembly EC50 determination); format: biochemical; details: tubulin 10 μM in 0.2 M MSG, 15 min at 20° C.
T1 construct: Bovine brain tubulin (10 μM) in 0.2 M MSG, 15 min at 20° C
Experimental: Dictyostatin and representative analogs were evaluated in a quantitative assay for their ability to promote tubulin polymerization. […] When the percent polymer formed was determined in the reactions, a comparison of the activities of all the analogs could be made.
The assay was performed under three different reaction conditions following the procedure reported earlier (Gapud et al., 2004). Reaction condition 1 included 0.2 M monosodium glutamate (MSG), 10 μM tubulin, 5% DMSO and varying concentrations of test agents. Reaction condition 2 included 0.8 M MSG, 400 μM GTP, 10 μM tubulin, 5% DMSO, and varying concentrations of test agents. Reaction condition 3 had 0.6 M MSG, 200 μM GTP, and 10 μM tubulin, and 5% DMSO, and varying concentrations of the test agents. The experimental protocol for all the three reaction conditions was the following. The reaction mixtures were incubated at room temperature (20-22° C.) for 15 min and spun for 10 min at 14,000 rpm in an Eppendorf microtube centrifuge. Aliquots of the supernatants were removed and assayed for protein content by the method of Lowry.

[7] = system: human ovarian carcinoma cells (1A9); experiment: Antiproliferative assay (GI50, MTS); format: cell-based
Experimental: as §1
as §2, with “The effects of dictyostatin and its analogs on growth inhibition of parental (A549) and paclitaxel-resistant (1A9/Ptx10 and Ptx22) ovarian adenocarcinoma cell lines were evaluated following the antiproliferative assay protocol as described earlier (Minguez et al., 2003; Choy et al., 2003; Lazo et al., 2001).” left out

With C=C/C=C\[C@H](C)[C@@H]1OC(=O)/C=C\C=C\[C@@H](C)[C@@H](O[Si](C)(C)C(C)(C)C)C[C@H](O[Si](C)(C)C(C)(C)C)/C=C\[C@H](C)[C@H](O[Si](C)(C)C(C)(C)C)[C@@H](C)C[C@@H](C)CC[C@H](O[Si](C)(C)C(C)(C)C)[C@@H]1C the ring closure, yield of all isomers ([1]; from C=C/C=C\[C@H](C)[C@H](O)[C@@H](C)[C@H](CC[C@H](C)C[C@H](C)[C@@H](O[Si](C)(C)C(C)(C)C)[C@@H](C)/C=C\[C@H](C[C@H](O[Si](C)(C)C(C)(C)C)[C@H](C)/C=C/C=C\C(=O)O)O[Si](C)(C)C(C)(C)C)O[Si](C)(C)C(C)(C)C, 2,4,6-trichlorobenzoyl chloride / Et3N / DMAP (Yamaguchi), 1.74 mM, 25.0 °C, 12.0 h) was 78%.
With C=C/C=C\[C@H](C)[C@@H]1OC(=O)/C=C\C=C\[C@@H](C)[C@@H](O[Si](C)(C)C(C)(C)C)C[C@H](O[Si](C)(C)C(C)(C)C)/C=C\[C@H](C)[C@H](O[Si](C)(C)C(C)(C)C)[C@@H](C)CCCC[C@@H](O[Si](C)(C)C(C)(C)C)[C@@H]1C the ring closure, yield of all isomers ([1]; from C=C/C=C\[C@H](C)[C@H](O)[C@@H](C)[C@@H](CCCC[C@H](C)[C@@H](O[Si](C)(C)C(C)(C)C)[C@@H](C)/C=C\[C@H](C[C@H](O[Si](C)(C)C(C)(C)C)[C@H](C)/C=C/C=C\C(=O)O)O[Si](C)(C)C(C)(C)C)O[Si](C)(C)C(C)(C)C, 2,4,6-trichlorobenzoyl chloride / Et3N / DMAP, 2.0 mM) was 76%.
In the case of C=C/C=C\[C@H](C)[C@@H]1OC(=O)/C=C\C=C\[C@@H](C)[C@@H](O[Si](C)(C)C(C)(C)C)C[C@H](O[Si](C)(C)C(C)(C)C)/C=C\[C@H](C)[C@H](O[Si](C)(C)C(C)(C)C)[C@@H](C)C[C@@H](C)CC[C@@H](O[Si](C)(C)C(C)(C)C)[C@@H]1C, the ring closure, yield of all isomers ([1]; from C=C/C=C\[C@H](C)[C@H](O)[C@@H](C)[C@@H](CC[C@H](C)C[C@H](C)[C@@H](O[Si](C)(C)C(C)(C)C)[C@@H](C)/C=C\[C@H](C[C@H](O[Si](C)(C)C(C)(C)C)[C@H](C)/C=C/C=C\C(=O)O)O[Si](C)(C)C(C)(C)C)O[Si](C)(C)C(C)(C)C, 2,4,6-trichlorobenzoyl chloride / Et3N / DMAP (Yamaguchi), 1.71 mM, 25.0 °C, 12.0 h) is reported as 78%.
In the case of CC(=O)O[C@H]1C(=O)[C@@]2(C)[C@H]([C@H](OC(=O)c3ccccc3)[C@]3(O)C[C@H](OC(=O)[C@H](O)[C@@H](NC(=O)c4ccccc4)c4ccccc4)C(C)=C1C3(C)C)[C@]1(OC(C)=O)CO[C@@H]1C[C@@H]2O [paclitaxel, reference compound], the “Minimum detectable cellular change, Phosphohistone H3” value [2] is reported as 17.5 ± 6.8 (4), the “Minimum detectable cellular change, Tubulin polymer intensity” value [2] is reported as 8.0 ± 2.9 (4) and the “Minimum detectable cellular change, Nuclear condensation” value ([2]; Hoechst 33342) is reported as 40.2 ± 13.9 (4). It also gave a fold-resistance [3] of 72 fold, a fold-resistance ([3]; listed as Paclitaxel) of roughly 70 fold and a GI50 ([3]; Homo sapiens, 1A9/ptx-22, 72 h, 1A9/Ptx22 (Ala364 −> Thr), 72 h incubation, read-out: GI50 ± S.D.) of 51 ± 9 nM. The fold-resistance [4] was 90 fold, the fold-resistance ([4]; listed as Paclitaxel) was “ca. 90 fold” and the GI50 ([4]; Homo sapiens, 1A9/ptx-10, 72 h, 1A9/Ptx10 (Phe270 −> Val), 72 h incubation, read-out: GI50 ± S.D.) was 64 ± 8 nM. For the same compound, the “Percent inhibition of radiolabel from microtubules, [3H]Discodermolide” value [5] was 6 ± 5 (3) %, the “Percent inhibition of radiolabel from microtubules, [14C]Epothilone B” value [5] was 26 ± 1 (3) % and the “% Tubulin polymerized by 50 μM test agent” value ([6]; 50 μM test agent) was 89 ± 6%. The EC50 ([6]; concentration required to polymerize 50% of tubulin, read-out: EC50 (μM) ± SD (N)) was 25 ± 3 µM, the GI50 ([7]; Homo sapiens, Ovarian carcinoma cell, 72 h, 1A9 parental cells, 72 h incubation, read-out: GI50 ± S.D.) was 0.71 ± 0.11 nM and the “antiproliferative potency / GI50 values (in words)” value ([7]; Table 1 (1A9 and mutant lines)) was “subnanomolar potency”.
C=C/C=C\[C@H](C)[C@@H]1OC(=O)/C=C\C=C\[C@H](C)[C@@H](O[Si](C)(C)C(C)(C)C)C[C@H](O[Si](C)(C)C(C)(C)C)/C=C\[C@H](C)[C@H](O[Si](C)(C)C(C)(C)C)[C@H](C)C[C@@H](C)CC[C@@H](O[Si](C)(C)C(C)(C)C)C1C (stereo in doubt) showed a ring closure, yield of all isomers ([1]; from C=C/C=C\[C@H](C)[C@H](O)[C@@H](C)[C@@H](CC[C@H](C)C[C@@H](C)[C@@H](O[Si](C)(C)C(C)(C)C)[C@@H](C)/C=C\[C@H](C[C@H](O[Si](C)(C)C(C)(C)C)[C@@H](C)/C=C/C=C\C(=O)O)O[Si](C)(C)C(C)(C)C)O[Si](C)(C)C(C)(C)C, 2,4,6-trichlorobenzoyl chloride / Et3N / DMAP, 1.94 mM, 25.0 °C, 16.0 h) of 78%.
